Experiments:
M4 muscarinic receptor = target: T1, M4 muscarinic receptor (Homo sapiens, UniProt P08173); experiment: Functional mobilization of intracellular calcium (FLIPR) in M4-CHO cells; assay type: cell-based; conditions: M4 receptor, calcium mobilization; for Emax: read-out: M4 Efficacy
T1 construct: expressed in transfected cells; host or cells: CHO (M4-CHO)
T1 sequence (P08173 1-479): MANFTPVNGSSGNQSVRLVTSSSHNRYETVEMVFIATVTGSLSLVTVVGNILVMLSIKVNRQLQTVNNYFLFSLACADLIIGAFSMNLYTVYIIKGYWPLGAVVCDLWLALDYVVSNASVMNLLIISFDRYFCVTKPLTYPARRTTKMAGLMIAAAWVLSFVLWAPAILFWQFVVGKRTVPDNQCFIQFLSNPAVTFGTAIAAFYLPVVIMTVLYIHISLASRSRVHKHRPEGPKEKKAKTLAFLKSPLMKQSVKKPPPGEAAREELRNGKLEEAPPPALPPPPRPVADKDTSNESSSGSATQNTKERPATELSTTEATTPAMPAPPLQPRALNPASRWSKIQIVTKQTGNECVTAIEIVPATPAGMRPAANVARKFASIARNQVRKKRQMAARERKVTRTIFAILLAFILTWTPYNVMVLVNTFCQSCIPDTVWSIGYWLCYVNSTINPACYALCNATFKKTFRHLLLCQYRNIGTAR
Procedure: (§1) Functional Mobilization of Intracellular Calcium to Determine Muscarinic Receptor Activity:
(§2) CHO cells expressing muscarinic receptors (M1 to M5) are grown as monolayers in tissue culture flasks at 37° C. in a humidified atmosphere containing 5% CO2 and passaged every 3-5 days. The growth media is Dulbecco's modified eagles medium (DMEM, Gibco Cat# 12430-054), containing 25 mM Hepes and supplemented with Fetal Bovine Serum (Hyclone, cat# SH30071.03), 0.1 mM of MEM non-essential amino acids (GIBCO, Cat# 11140-050), 1 mM MEM Sodium Pyruvate (GIBCO Cat# 11360-070) and 100 units/ml of Penicillin G and 100 μg/ml of Streptomycin (GIBCO Cat# 15140-122). The recombinant muscarinic receptor cell lines are grown under antibiotic pressure with media containing 25 μg/ml zeocin and 500 μg/ml G418 (M1-CHO), 4 μg/ml puromycin, 50 μg/ml zeocin and 2.5 μg/ml blasticidin (M2 and M4-CHO) or 50 μg/ml zeocin and 4 μg/ml puromycin (M3 and M5-CHO).
(§3) Cells are harvested at 80-90% confluence using Versene (GIBCO Cat# 15040-066), collected by centrifugation and seeded 18-24 hrs prior to running the calcium assay at a density of 5,000 cells/well in back-walled, clear-bottomed 384-well plates (BD Biocoat, poly-D-lysine, Cat#356663). The day of the experiment, the cells are washed with a plate washer (Bioteck Instruments, ELX 405) using bath 1 buffer (140-mM NaCl, 4.5-mM KCl, 2-mM CaCl2, 1-mM MgCl2, 10-mM Hepes-Na, 10-mM Glucose, pH 7.4, with NaOH) containing 1 mM Probenecid. Next, the calcium dye Fluo-3 (25 μl/well of Fluo-3 AM at 4 μM, Molecular Probes F-1241, in Bath 1 buffer containing 1 mM Probenecid) is added to the 25 μl of Bath 1 remaining in each well after the plate wash and the dye is loaded at 37° C. in the tissue culture incubator for 60-90 min. The fluorescent dye is removed using the plate washer with Bath 1 containing 1 mM Probenecid, leaving 25 μl/well of this solution after the wash. Alternatively, cells can be loaded with the calcium indicator from Molecular Devices (Calcium 3 Assay Reagents, Cat # R7181) adding 5 μl of a 5× solution dye in Bath 1 containing 1 mM Probenecid (10 ml per dye flask cat# R7182 to generate a solution 20×) to 20 μl of the same buffer. After loading for 60 min, the experiment can be run without having to remove the dye.
(§4) Compounds are prepared at a 2× fold concentration in a 96-well plate (round bottom, Costar Corning cat# 3656), by reconstituting the pre-spotted compounds in bath 1 containing 1 mM probenecid. The final concentration DMSO is 0.5%, and the amount of DMSO is normalized across the assay plate. To determine an agonist action of the compounds on muscarinic receptors, the reconstituted compounds are added (25 μl compound/well) to the cell assay plate (containing 25 μl/well) using the multi-channel robotic system of the FLIPR 3 Instrument (Molecular Devices, Sunnyvale, Calif.). To determine a functional inhibitory action of the compounds on muscarinic receptors, the reconstituted compounds are added (25 μl compound/well) to the assay plate and pre-incubated for 15 min prior to adding 25 μl of Carbachol at 3× the EC80 for each muscarinic subtype. Alternatively, the compounds can be co-applied simultaneously with the agonist. In both assay modes, the fluorescence is recorded for 60 sec (excitation wavelength is […] and emission wavelength 540 nm) using the FLIPR 3 instrument.
(§5) The potency, efficacy and selectivity of the muscarinic compounds were evaluated by screening the compound activity across the whole family (M1 to M5 cells). Compounds were also screened for activity on other proteins such as other GPCRs and ion channels to determine selectivity on M4 receptors.

M1 muscarinic receptor = target: T2, M1 muscarinic receptor (Homo sapiens, UniProt P11229); experiment: Functional mobilization of intracellular calcium (FLIPR) in M1-CHO cells; assay type: cell-based; conditions: M1 receptor, calcium mobilization; for Emax: read-out: M1 Efficacy
T2 construct: expressed in transfected cells; host or cells: CHO (M1-CHO)
T2 sequence (P11229 1-460): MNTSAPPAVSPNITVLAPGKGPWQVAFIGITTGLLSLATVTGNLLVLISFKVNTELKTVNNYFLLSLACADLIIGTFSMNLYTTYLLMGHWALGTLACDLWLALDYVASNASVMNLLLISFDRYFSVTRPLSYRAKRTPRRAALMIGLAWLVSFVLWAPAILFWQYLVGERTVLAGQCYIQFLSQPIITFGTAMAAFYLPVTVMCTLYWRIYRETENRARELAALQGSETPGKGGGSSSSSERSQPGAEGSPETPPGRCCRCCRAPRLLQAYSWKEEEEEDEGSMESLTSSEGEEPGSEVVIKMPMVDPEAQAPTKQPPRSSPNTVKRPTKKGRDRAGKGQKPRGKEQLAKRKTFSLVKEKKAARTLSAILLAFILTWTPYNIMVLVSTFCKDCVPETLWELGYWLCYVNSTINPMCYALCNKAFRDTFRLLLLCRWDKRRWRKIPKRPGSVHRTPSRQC
Procedure: as §1, §2, §3, §4, §5

SMILES | M4 Activity (M4 muscarinic receptor) | Emax (M4 muscarinic receptor) | M1 Activity (M1 muscarinic receptor) | Emax (M1 muscarinic receptor)
CCOC(=O)N1CCC(CN2CCC3(CC2)CN(C(C)=O)c2ccc(OC(F)(F)F)cc23)CC1 [compound 21] | x (activity was measured to be greater than 1.0 μM) | < 65% | xx (activity was measured to be between 0.1 μM and 1.0 μM) | < 65%
CCOC(=O)N1CCC(N2CCC3(CC2)CN(C(=O)N2CCCC2)c2ccc(F)cc23)CC1 [compound 22] | x (activity was measured to be greater than 1.0 μM) | < 65% | xxx (activity was measured to be less than 0.1 μM) | 65 to 85%
Cc1ccc2c(c1)C1(CCN([C@@H]3C[C@@H]4CC[C@@H]3C4)CC1)CN2 [compound 23] | x (activity was measured to be greater than 1.0 μM) | < 65% | xx (activity was measured to be between 0.1 μM and 1.0 μM) | < 65%
Cc1cc(C(=O)N2CC3(CCN(C4CC5CCC(C4)N5C(=O)OC(C)C)CC3)c3cc(F)ccc32)nn1C (centres unmarked) [compound 24] | x (activity was measured to be greater than 1.0 μM) | < 65% | xx (activity was measured to be between 0.1 μM and 1.0 μM) | < 65%
COCCOC(=O)N1CCC(CN2CCC3(CC2)CN(C(C)=O)c2ccc(F)cc23)CC1 [compound 26] | xx (activity was measured to be between 0.1 μM and 1.0 μM) | < 65% | xxx (activity was measured to be less than 0.1 μM) | 65 to 85%
CCC1CCC(N2CCC3(CC2)CN(C(C)=O)c2ccc(F)cc23)CC1 (centres unmarked) [compound 27] | xxx (activity was measured to be less than 0.1 μM) | 65 to 85% | xxx (activity was measured to be less than 0.1 μM) | 65 to 85%
CCOC(=O)N1C2CCC1CC(N1CCC3(CC1)CN(C(=O)O[C@@H]1CCOC1)c1ccc(F)cc13)C2 (some centres unmarked) [compound 28] | xx (activity was measured to be between 0.1 μM and 1.0 μM) | 65 to 85% | xxx (activity was measured to be less than 0.1 μM) | > 85%
CC(=O)N[C@H]1CC2(CCN(CC3CC4CCC3CC4)CC2)c2ccccc21 (some centres unmarked) [compound 29] | xxx (activity was measured to be less than 0.1 μM) | > 85% | xxx (activity was measured to be less than 0.1 μM) | > 85%
CCOC(=O)N1CCC(N2CCC3(CC2)CN(C(=O)OCC(C)C)c2ccc(F)cc23)CC1 [compound 30] | xxx (activity was measured to be less than 0.1 μM) | > 85% | xxx (activity was measured to be less than 0.1 μM) | > 85%
CCOC(=O)N1CCC(N2CCC3(CC2)C(=O)N(C)c2ccccc23)CC1 [compound 31] | xxx (activity was measured to be less than 0.1 μM) | 65 to 85% | xxx (activity was measured to be less than 0.1 μM) | > 85%
CN(C)C(=O)N1CC2(CCN(C3CC4CCC(C3)N4C(=O)OCCF)CC2)c2cc(F)ccc21 (centres unmarked) [compound 32] | xxx (activity was measured to be less than 0.1 μM) | 65 to 85% | xxx (activity was measured to be less than 0.1 μM) | > 85%
COCCOC(=O)N1C2CCC1CC(N1CCC3(CC1)CN(C(=O)OC)c1ccc(F)cc13)C2 (centres unmarked) [compound 33] | xxx (activity was measured to be less than 0.1 μM) | > 85% | xxx (activity was measured to be less than 0.1 μM) | > 85%
CCOC(=O)N1CCC(CN2CCC3(CC2)CC(=O)Nc2ccccc23)CC1 [compound 34] | xx (activity was measured to be between 0.1 μM and 1.0 μM) | > 85% | xxx (activity was measured to be less than 0.1 μM) | 65 to 85%
CC(=O)N1CC2(CCN(C3CC4CCC(C4)C3)CC2)c2cc(F)ccc21 (centres unmarked) [compound 35] | xx (activity was measured to be between 0.1 μM and 1.0 μM) | > 85% | xxx (activity was measured to be less than 0.1 μM) | > 85%
CCCOC(=O)N1CCC(CN2CCC3(CC2)C[C@H](NC(C)=O)c2ccccc23)CC1 [compound 36] | xx (activity was measured to be between 0.1 μM and 1.0 μM) | > 85% | xxx (activity was measured to be less than 0.1 μM) | 65 to 85%
Clc1ccc2c(c1)C1(CCN(C3CCOCC3)CC1)CN2 [compound 37] | xx (activity was measured to be between 0.1 μM and 1.0 μM) | > 85% | xxx (activity was measured to be less than 0.1 μM) | 65 to 85%
CCOC(=O)N1CCC(N2CCC3(CC2)CN(C(=O)OCCOC)c2ccc(F)cc23)CC1 [compound 38] | xxx (activity was measured to be less than 0.1 μM) | > 85% | xxx (activity was measured to be less than 0.1 μM) | > 85%
CCOC(=O)N1CCC(N2CCC3(CC2)CN(C(=O)N(C)C)c2ccc(F)cc23)CC1 [compound 39] | xx (activity was measured to be between 0.1 μM and 1.0 μM) | > 85% | xxx (activity was measured to be less than 0.1 μM) | 65 to 85%
CCOC(=O)N1CCC(N2CCC3(CC2)CN(C(=O)c2ccc(OC)cc2)c2ccc(F)cc23)CC1 [compound 41] | xxx (activity was measured to be less than 0.1 μM) | > 85% | xxx (activity was measured to be less than 0.1 μM) | > 85%
CCOC(=O)N1C2CCC1CC(N1CCC3(CC1)COc1ccc(F)cc13)C2 (centres unmarked) [compound 42] | xx (activity was measured to be between 0.1 μM and 1.0 μM) | > 85% | xxx (activity was measured to be less than 0.1 μM) | > 85%

From US7786141B2 (Vertex Pharmaceuticals Incorporated, priority 2004, dated 2010)
